Measured values taken from the supplement of paper PMC10949913.

Tests used:
Settings in all cases: 48 h
CU-ACC1 [1] = experiment: area under concentration-response curve (viability) (AUC (a.u.)); higher = less active
How it was run: (§1)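 Cells from three adrenocortical carcinoma lines were seeded at 500–1,000 cells/well in 5 µL medium in 1,536-well plates. Each library compound was added as 23 nL at 11 concentrations, and after 48 h CellTiter-Glo was added for 15 minutes at room temperature before reading luminescence. Plate-wise normalisation to vehicle and empty-well controls preceded curve fitting. AC50 and area under the curve were calculated only for inhibitory or non-responding curve classes.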

CU-ACC2 = experiment: as above
How it was run: as §1

NCI-H295R [2] = experiment: as above
How it was run: as §1

CU-ACC1 [3] = experiment: AC50 viability; higher = less potent
How it was run: as §1

NCI-H295R [4] = experiment: AC50 viability; higher = less potent
How it was run: as §1

SMILES	area under concentration-response curve (CU-ACC1 [1])	area under concentration-response curve (CU-ACC2)	area under concentration-response curve (NCI-H295R [2])	AC50 viability (CU-ACC1 [3]) [µM]	AC50 viability (NCI-H295R [4]) [µM]
CCN1C(=O)C\N=C/2N\C=C(/N=C12)C3=C(C)N=C(C=C3)C4=NN=C[NH]4	404	489	458	10.5	13.2
C[C@H]1O[C@H](C[C@H](O)[C@@H]1O)O[C@H]2[C@@H](O)C[C@@H](O[C@@H]2C)O[C@H]3[C@@H](O)C[C@@H](O[C@@H]3C)O[C@H]4CC[C@@]5(C)[C@H](CC[C@@H]6[C@@H]5C[C@@H](O)[C@]7(C)[C@H](CC[C@]67O)C/8=C/C(=O)OC8)C4	255	349	269	0.0372	0.118
CC(C)n1nc(-c2ccc3oc(N)nc3c2)c2c(N)ncnc21	338	455	404	0.0372	0.166
OC(c1cc(C(F)(F)F)nc2c(C(F)(F)F)cccc12)C1CCCCN1 (configuration not stated)	501	619	527	23.5	20.9
CC(C)(C)c1[nH]cnc1/C=c1\[nH]c(=O)/c(=C/c2ccccc2)[nH]c1=O	490	398	434	18.6	0.0372
C[C@H]1[C@H](O)O[C@@H]2O[C@@]3(C)CC[C@H]4[C@H](C)CC[C@@H]1[C@@]24OO3	494	604	549	6.61	20.9
COC(=O)Nc1ccc(-c2nc(N3CCOCC3)c3cnn(C4CCN(C(=O)OC)CC4)c3n2)cc1	399	573	485	2.95	2.95
C[C@@H](Oc1ccc2[nH]nc(/C=C/c3cnn(CCO)c3)c2c1)c1c(Cl)cncc1Cl	481	519	473	16.6	14.8
COc1cc(OC2CCN(C)CC2)ccc1Nc1ncc2c(n1)n(C1CCCC1)c(=O)n2C	447	619	528	26.3	23.5
C[C@@H](C(=O)Nc1ccc(Cl)cc1)[C@H]1CC[C@@H](c2ccnc3ccc(F)cc32)CC1	488	626	564	29.5	16.6
Cc1nc(N)ncc1-c1nc(N2CCOCC2)c2sc(C(C)(C)O)cc2n1	333	488	475	8.33	4.68
CC1=C(C)C\2=C(S1)[N]3C(=NN=C3[C@H](CC(=O)NC4=CC=C(OCCOCCOCCOCCNC5=CC=CC6=C5C(=O)N(C7CCC(=O)NC7=O)C6=O)C=C4)\N=C2C8=CC=C(Cl)C=C8)C (some centres not stated)	443	484	457	0.417	1.86
CC(=O)Nc1ccc(C(=O)Nc2ccccc2N)cc1	413	408	445	7.42	18.6
O=C(NCCCNC(=O)c1cccnc1O)c1cc(-c2ccccc2)on1	481	574	443	20.9	18.6
CC(=O)Nc1cc(Oc2ccc3c(nc(Nc4ccc(F)cc4F)n3C)c2C)ccn1	484	544	482	18.6	11.8
COc1ccc(C[C@@H](C)[C@@H](C)Cc2ccc(OC)c(OC)c2)cc1OC	452	536	480	4.68	20.9
CC(C)C[C@H](NC(=O)[C@H](Cc1ccccc1)NC(=O)c1cnccn1)B(O)O	290	327	345	0.0372	0.0263
Cc1c(CN2CCN(C(=O)[C@H](C)O)CC2)sc2c(N3CCOCC3)nc(-c3cnc(N)nc3)nc12	215	–	210	0.0295	2.09
ClC1=CC=C(CCCOC/2=N/NC(=O)C(=C2NCC3=CN=CC=C3)/Br)C=C1	358	–	457	3.72	10.5
COC1=CC=C2[N](CCCN(C)C)C=C(C2=C1)C/3=C(/C(=O)NC3=O)C4=C[NH]C5=C4C=CC=C5	514	–	547	26.3	26.3
CN1CCN(c2ncc(-c3cc(Cl)cc(Cl)c3Cl)c(N)n2)CC1	405	–	487	14.8	11.8
NCC1CCN(c2nccc(-c3ccc4ccccc4c3)n2)CC1	477	–	492	23.5	16.6
Cc1ccc(F)c(NC(=O)Nc2ccc(-c3cccc4[nH]nc(N)c34)cc2)c1	497	–	506	18.6	26.3
CCC(CC)C(c1ccc(Nc2nc3ccccc3s2)cc1)n1cncn1 (configuration not stated)	451	–	474	29.5	20.9
O=[N+]([O-])c1ccc(O)c2ncccc12	482	–	483	11.8	11.8
